Assay results from the supplement of paper PMC11061612.

Columns and labels:
[1] = test system: HSC-2 (Oral Cavity Carcinoma); test: combination Emax (second highest fraction inhibited in the dose matrix, 72 h); higher = more inhibition; extreme values may be limits of the assay
In short: (§1)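 Cell lines grown in DMEM/F12 or RPMI with 10% FBS were plated in 1536-well plates and held 24 hours at 37°C, 5% CO2 before 72 hours of exposure to two-drug dose matrices, with DMSO typically at 0.2%. CellTiter-Glo 2.0 luminescence gave viability, which was converted to inhibition. Vehicle wells were set to 0 and blank wells to 1. Combination Emax is the second-highest inhibition in the matrix, and Bliss excess is the observed combination effect minus the expected EA + EB − EA·EB, where EA and EB are the single-agent effects.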

[2] = test system: JHH-7 (Hepatocellular Carcinoma); test: as above
In short: as §1

GI-1 (Glioblastoma) [3] = test: as above
In short: as §1

[4] = test system: SNU-C1 (Colorectal Carcinoma); test: as above
In short: as §1

[5] = test system: H-EMC-SS (Chondrosarcoma); test: as above
In short: as §1

[6] = test system: NCI-N87 (Gastric Carcinoma); test: as above
In short: as §1

[7] = test system: LC4-1 (B-Lymphoblastic Leukemia); test: as above
In short: as §1

[8] = test system: KINGS-1 (Low Grade Glioma); test: as above
In short: as §1

[9] = test system: VMRC-LCD (Lung Adenocarcinoma); test: as above
In short: as §1

[10] = test system: SCC-9 (Oral Cavity Carcinoma); test: as above
In short: as §1

[11] = test system: OCUM-1 (Gastric Carcinoma); test: as above
In short: as §1

[12] = test system: TGBC11TKB (Gastric Carcinoma); test: as above
In short: as §1

[13] = test system: OCUB-M (Breast Carcinoma); test: as above
In short: as §1

NB7 (Neuroblastoma) [14] = test: as above
In short: as §1

EW-3 (Ewing's Sarcoma) [15] = test: as above
In short: as §1

[16] = test system: HSC-2 (Oral Cavity Carcinoma); test: Bliss excess, mean over the matrix (fraction); higher = more synergy
In short: as §1

[17] = test system: JHH-7 (Hepatocellular Carcinoma); test: as above
In short: as §1

GI-1 (Glioblastoma) [18] = test: as above
In short: as §1

[19] = test system: SNU-C1 (Colorectal Carcinoma); test: as above
In short: as §1

[20] = test system: H-EMC-SS (Chondrosarcoma); test: as above
In short: as §1

[21] = test system: NCI-N87 (Gastric Carcinoma); test: as above
In short: as §1

[22] = test system: LC4-1 (B-Lymphoblastic Leukemia); test: as above
In short: as §1

[23] = test system: KINGS-1 (Low Grade Glioma); test: as above
In short: as §1

[24] = test system: VMRC-LCD (Lung Adenocarcinoma); test: as above
In short: as §1

[25] = test system: SCC-9 (Oral Cavity Carcinoma); test: as above
In short: as §1

[26] = test system: OCUM-1 (Gastric Carcinoma); test: as above
In short: as §1

[27] = test system: TGBC11TKB (Gastric Carcinoma); test: as above
In short: as §1

[28] = test system: OCUB-M (Breast Carcinoma); test: as above
In short: as §1

NB7 (Neuroblastoma) [29] = test: as above
In short: as §1

EW-3 (Ewing's Sarcoma) [30] = test: as above
In short: as §1
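For Bliss excess, mean over the matrix in this document: after 72 h of two-drug dosing.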

Structure (SMILES)	combination Emax [1]	combination Emax [2]	combination Emax (GI-1 (Glioblastoma) [3])	combination Emax [4]	combination Emax [5]	combination Emax [6]	combination Emax [7]	combination Emax [8]	combination Emax [9]	combination Emax [10]	combination Emax [11]	combination Emax [12]	combination Emax [13]	combination Emax (NB7 (Neuroblastoma) [14])	combination Emax (EW-3 (Ewing's Sarcoma) [15])	Bliss excess [16]	Bliss excess [17]	Bliss excess (GI-1 (Glioblastoma) [18])	Bliss excess [19]	Bliss excess [20]	Bliss excess [21]	Bliss excess [22]	Bliss excess [23]	Bliss excess [24]	Bliss excess [25]	Bliss excess [26]	Bliss excess [27]	Bliss excess [28]	Bliss excess (NB7 (Neuroblastoma) [29])	Bliss excess (EW-3 (Ewing's Sarcoma) [30])
N#Cc1cnc(Nc2cc(NC[C@H]3CNCCO3)c(C(F)(F)F)cn2)cn1 [SRA737] + C=CCn1c(=O)c2cnc(Nc3ccc(N4CCN(C)CC4)cc3)nc2n1-c1cccc(C(C)(C)O)n1 [AZD1775] (first compound max 10 µM, partner max 1 µM)	0.584	0.543	0.91	0.789	0.354	0.828	0.891	0.412	0.778	0.326	0.53	0.919	0.637	0.849	0.501	0.0573	-0.0263	0.0907	0.12	0.0311	0.0275	0.0618	0.0035	-0.0067	0.0078	0.0537	0.0401	0.102	0.0949	0.0086
Cc1c2c(nn1C)CSCc1cc(n(C)n1)CSc1cc(c3ccccc3c1)OCCCc1c(C(=O)O)n(C)c3c-2c(Cl)ccc13 [AZD5991] + CS(=O)(=O)CCNCc1ccc(-c2ccc3ncnc(Nc4ccc(OCc5cccc(F)c5)c(Cl)c4)c3c2)o1 [Lapatinib] (first compound max 1 µM, 7x7, partner max 10 µM)	0.998	0.348	0.577	0.425	0.3	0.967	0.97	0.215	0.33	0.984	0.239	0.839	1	0.593	0.597	0.0287	0.0061	-0.0104	-0.0746	-0.0134	0.0077	0.0538	-0.0437	0.0626	0.0313	-0.0754	0.0676	0.0617	0.0109	-0.028
